Laboratory results from paper PMC11324046, “Second-generation piperazine derivatives as promising radiation countermeasures” (RSC Medicinal Chemistry, 2024).
Entries after “also recorded” stand apart in the source; their conditions may differ.

What was measured:
mice = test system: mice; design: method as in PMID 29852368; conditions: 200 mg kg^−1 dose; cited from earlier work
[1] = WST-1 proliferation assay, HT-29; type: cell-based; conditions: human, HT-29 cells (colorectal adenocarcinoma), vs 0.1% DMSO control = 100%, mean ± standard deviation
Description: (§1) A thorough analysis of antiproliferative activity was performed across various cell culture types representing different histotypes: leukemia (Jurkat, MOLT-4), lung adenocarcinoma (A549), colorectal adenocarcinoma (HT-29), pancreatic carcinoma (PANC-1), breast adenocarcinoma (MCF-7), osteosarcoma (SAOS-2), and one non-cancerous cell line (fetal lung fibroblasts MRC-5). The cell lines were exposed to the newly synthesized compounds at a concentration of 100 μM for 48 h in a single-dose treatment. Changes in cell proliferation compared to the vehicle 0.1% dimethyl sulfoxide (DMSO) control were determined using the WST-1 assay, which is based on mitochondrial dehydrogenase metabolic activities. […] The overall cytotoxic activity of each compound was expressed as growth percent (GP) – the mean of the proliferation of all cell lines treated with the same compound.
(§2) Selected human tumor and non-tumor cell lines Jurkat (acute T-cell leukemia), MOLT-4 (acute lymphoblastic leukemia), A549 (lung carcinoma), HT-29 (colorectal adenocarcinoma), PANC-1 (pancreas epithelioid carcinoma), MCF-7 (breast adenocarcinoma), SAOS-2 (osteosarcoma) and MRC-5 (normal lung fibroblasts) were purchased from either American Type Culture Collection (ATCC; VA, USA) or Sigma-Aldrich (St. Louis, MO, USA) and cultured according to the provider's culture method guidelines. All cell lines were maintained at 37 °C in a humidified 5% carbon dioxide and 95% air incubator. Cells in the maximum range of either 10 passages for the adherent cell lines (A549, HT-29, PANC-1, MCF-7, SAOS-2, and MRC-5), or 20 passages for suspension cell lines (Jurkat, MOLT-4,) and in an exponential growth phase were used for this study. Screening of the antiproliferative effect and growth percent calculation were conducted as follows: each cell line was seeded at previously established optimal density (1–50 × 10^3 cells per well) in a 96-well plate (TPP, Trasadingen, Switzerland) and cells were allowed to settle overnight. Cells were treated for 48 h with compounds at a final concentration of 100 μM. At the end of the cultivation period, the WST-1 proliferation assay (Roche, Basel, Switzerland) was performed according to the manufacturer's protocol. The absorbance was measured at 440 nm using a Tecan Spark multimode microplate reader (Tecan, Mannedorf, Switzerland). Each value is the mean of three independent experiments and represents the percentage of proliferation (100% cell proliferation for 0.1% DMSO mock-treated control cells). The GP value was calculated for each compound tested. GP represents the mean of the percentage proliferation decrease of all cell lines treated with the same compound.

[2] = WST-1 proliferation assay, MOLT-4; type: cell-based; conditions: human, MOLT-4 cells (acute lymphoblastic leukemia), vs 0.1% DMSO control = 100%, mean ± standard deviation
Description: as §1, §2

[3] = test system: panel of human cell lines; assay: Overall cytotoxicity screening across the cell line panel (growth percent); type: cell-based; conditions: 100 μM, 48 h, single-dose treatment, WST-1
Description: as §1
Selected human tumor and non-tumor cell lines Jurkat (acute T-cell leukemia), MOLT-4 (acute lymphoblastic leukemia), A549 (lung carcinoma), HT-29 (colorectal adenocarcinoma), PANC-1 (pancreas epithelioid carcinoma), MCF-7 (breast adenocarcinoma), SAOS-2 (osteosarcoma) and MRC-5 (normal lung fibroblasts) were purchased from either American Type Culture Collection (ATCC; VA, USA) or Sigma-Aldrich (St. Louis, MO, USA) and cultured according to the provider's culture method guidelines. […]

[4] = WST-1 proliferation assay, MCF-7; type: cell-based; conditions: human, MCF-7 cells (breast adenocarcinoma), vs 0.1% DMSO control = 100%, mean ± standard deviation
Description: as §1, §2

[5] = WST-1 proliferation assay, A549; type: cell-based; conditions: human, A549 cells (lung carcinoma), vs 0.1% DMSO control = 100%, mean ± standard deviation
Description: as §1, §2

[6] = WST-1 proliferation assay, Jurkat; type: cell-based; conditions: human, Jurkat cells (acute T-cell leukemia), vs 0.1% DMSO control = 100%, mean ± standard deviation
Description: as §1, §2

[7] = WST-1 proliferation assay, MRC-5; type: cell-based; conditions: human, MRC-5 cells (normal lung fibroblasts), vs 0.1% DMSO control = 100%, mean ± standard deviation
Description: as §1, §2

[8] = WST-1 proliferation assay, SAOS-2; type: cell-based; conditions: human, SAOS-2 cells (osteosarcoma), vs 0.1% DMSO control = 100%, mean ± standard deviation
Description: as §1, §2

[9] = WST-1 proliferation assay, PANC-1; type: cell-based; conditions: human, PANC-1 cells (pancreas epithelioid carcinoma), vs 0.1% DMSO control = 100%, mean ± standard deviation
Description: as §1, §2

Row | Structure (SMILES) | Survival of mice (in words) (mice) | viability at 48 h, 100 µM [1] [%] | viability at 48 h, 100 µM [2] [%] | Overall cytotoxic activity across cell lines (in words) [3] | viability at 48 h, 100 µM [4] [%] | viability at 48 h, 100 µM [5] [%] | viability at 48 h, 100 µM [6] [%] | viability at 48 h, 100 µM [7] [%] | viability at 48 h, 100 µM [8] [%] | viability at 48 h, 100 µM [9] [%]
1 | O=C1N=C(N2CCN(CCO)CC2)S/C1=C\c1ccc(-c2ccccc2)cc1 [CLZ-8] | significantly improved their survival |  |  |  |  |  |  |  |  | 
2 | OCCN1CCN(CC(O)COc2cc(Cl)c(Cl)cc2Cl)CC1 (stereo not shown) [Compound 8, 1-(4-(2-Hydroxyethyl)piperazin-1-yl)-3-(2,4,5-trichlorophenoxy)propan-2-ol] |  | 33 ± 3 | 41 ± 8 | severe toxicity to most of the tested cell lines; also recorded: exhibited stand-alone cytotoxicity | 41 ± 7 | 92 ± 12 | 28 ± 4 | 15 ± 10 | 42 ± 5 | 101 ± 2
3 | OCCN1CCN(CC(O)COc2ccc(Oc3ccc(F)cc3)cc2)CC1 (stereo not shown) [Compound 7, 1-(4-(2-Hydroxyethyl)piperazin-1-yl)-3-(4-(4-fluorophenoxy)phenoxy)propan-2-ol] |  | 12 ± 2 | 6 ± 5 | severe toxicity to most of the tested cell lines; also recorded: exhibited stand-alone cytotoxicity | 7 ± 7 | 6 ± 2 | 2 | 0 | 15 ± 5 | 55 ± 6
